Results from US4374261A, “1-Ethyl-1,4-dihydro-6-(2-naphthyl)-4-oxo-nicotinic acid and esters thereof” (Hoffmann-La Roche Inc., priority 1981, dated 1983).

Legend:
rat = assay: Turning rat test (unilateral 6-OHDA lesion of the medial forebrain bundle); type: in vivo
Method: Female rats weighing 150 g are anaesthetised with pentobarbital (50 mg kg^-1 i.p.) and fixed in a stereotaxic apparatus (David Kopf). A unilateral (right side) injection into the MFB (medial forebrain bundle) or 6-OHDA (6-hydroxy-dopamine), 3 μg as base, dissolved in 4 μl of Ringer solution containing 0.02% ascorbic acid, is carried out through a stainless-steel cannula (diameter 0.3 mm) connected to a microsyringe. The liquid is injected at a speed of 1 μl min^-1 by means of a high precision infusion pump. In order to reach the MFB (medial forebrain bundle), the following conditions are used: A=+3.8 mm, L (right)=0.9 mm, V=-3 mm according to the Atlas of Konig and Klippel.
After 3 weeks recovery period, the operated rats are injected with apomorphine, 1 mg kg^1- i.p.. Those animals showing a regular contralateral (i.e., away from the lesioned side) turning, recorded automatically during 1 hour in a rotometer, are selected for further experiments. At least one week is allowed between each injection of screening compounds. […]
The total number of ipsilateral or contralateral turns (full rotation around the vertical axes of the body) made by each rat, is automatically recorded over the time (usually 1 hour). 5 rats are injected for each dose and the mean of total turns per hour is determined.
A compound is said active, if it produces more than 100 turns/hour. […] The results are expressed as: […]

mouse = assay: LD50 (mouse), acute toxicity; type: in vivo
[1] = vs d-amphetamine and d-methamphetamine (Table I)

Q: With `CCn1cc(C(=O)O)c(=O)cc1-c1ccc2ccccc2c1` [1-ethyl-1,4-dihydro-6-(2-naphthyl)-4-oxonicotinic acid] as the compound, how does the “strength of action compared with d-amphetamine and d-methamphetamine” value (rat; [1]) read?
A: about the same strength of action

Q: What about the “activity compared with nomifensin” value (rat; vs nomifensin) of the same compound?
A: substantially superior to nomifensin

Q: And the “LD50 compared with d-amphetamine and d-methamphetamine” value (mouse; [1])?
A: substantially lower LD50

Q: What about the “LD50 compared with nomifensin” value (mouse; vs nomifensin) of the same compound?
A: about the same LD50
